Reference: patent publication US11872291B2, “Fibroblast activation protein (FAP)-targeted imaging and therapy” (priority 2016, dated 2024)

Experiments:
[1] = test system: FaDu, HT29, MDA-MB231 or KB tumor bearing mice; assay: In vivo fluorescence imaging and biodistribution in tumor xenografts; conditions: i.v., 2 h post injection; harvested organs
Description: In Vivo Fluorescence Imaging and Biodistribution. For the development of subcutaneous tumor xenografts, MDA-MB231, OVCAR-3 and HEC-1B 5×10^6 cells in 0.2 ml sterile PBS were injected subcutaneously in the right hind flank of the female nu/nu mice. Tumor imaging was initiated once the tumor volume reached between 200 mm^3 and 300 mm^3. Each tumor-bearing mouse was intravenously injected (via tail vein) with 10 nanomoles of fluorescence dye conjugate either in the presence or absence of a 100-fold excess of the unlabeled conjugate. Animals were euthanized two hours post injection using CO2 and the images were acquired using Caliper IVIS Luminal II. After performing the whole body image, the organs of interest were harvested and imaged to inspect the accumulation of the fluorescence in these organs. The image acquisition parameters were as follows: i) lamp level-high, ii) excitation-745 nm, iii) emission-ICG, iv) binning (M) 4M, (v) f-stop-4, (vi) FOV-12.5, (vii) acquisition time, 5 s.
In Vivo Fluorescence Imaging. To investigate the ability of JFL-L1-S0456 to accumulate in vivo mice were implanted with FaDu (n=5), HT29 (n=5), MDA-MB231(n=5) or KB (n=5) cells. These tumor bearing mice were intravenously injected with the NIR dye conjugate alone or co-injected with excess of the FAP targeting ligand JFL. […]

[2] = test system: FaDu, HT29, MDA-MB231 and KB cancer cells; assay: Confocal microscopy, uptake of JFL-L1-FM by cancer cells; format: cell-based; conditions: 100 nM, 1 h incubation at 37° C.
Description: Confocal Microscopy. FaDu, HT29, MDA-MB231 and KB cancer cells (30,000) were plated on 4 well confocal plate. The cells were incubated with […] JFL-L1-FM and incubated for 1 h. The unbound fluorescence was removed by washing the cells three times with the medium. The cell bound fluorescence was observed by using Olympus confocal microscopy.
In Vitro Binding Affinity and Confocal Imaging. The cancer cells FaDU, HT29, MDA-MB231 and KB were investigated for the expression of FAP. For this purpose, the cancer cells were seeded on a confocal well plate and incubated with 100 nM of the FAP targeted FM conjugate (JFL-L1-FM) After 1 h incubation at 37° C. the cells were washed to remove any excess of the […] under confocal microscopy to investigate any uptake of the dye, as shown in FIG. 11. […] This implied absence of FAP on these cancer cells.

[3] = test system: MDA-MB-231 subcutaneous tumor; assay: In vivo FAP targeted CAR T-cell therapy; parameters: species or system mice
Description: In vivo FAP targeted CAR T-cell therapy: MDA-MB-231 subcutaneous tumor was developed in female NSG mice by injecting 5 million cancer cells. Once the tumor volume reached ˜100 mms the mice were randomized into three different groups and treatment was initiated. Mice in all the groups were administered with 15 million CAR T-cells which has an scFv domain that binds specifically and tightly with fluorescein. 2 h after administration of the CAR T-cells mice in all the groups were given the first dose of the respective test agents. […] During therapy, mice in different groups were administered with the respective test agents intravenously on every other day. As a measure of gross toxicity mice were also weighed at every dosing.

[4] = 10 nmoles i.v. every other day with 15 million anti-fluorescein CAR T-cells

Structure (SMILES)	uptake of the dye conjugate in the liver and kidney [1]	uptake of dye conjugate observed under confocal microscopy [2]	tumor growth rate after 1 week of treatment [3, 4]	tumor volume at the beginning of the study [3, 4]	tumor growth rate, competition group ([3]; 10 nmoles plus 100-fold excess of JFL, with CAR T-cells)	weight loss (gross toxicity) ([3]; all arms of the study)
C[C@@H](NC(=O)c1ccnc(CNC(=O)CCC(=O)N[C@@H](CSC2CC(=O)N(CCNC(=O)CCc3ccc(OC4=C(/C=C/C5=[N+](CCCCS(=O)(=O)O)c6ccc(S(=O)(=O)[O-])cc6C5(C)C)CCC/C4=C\C=C4\N(CCCCS(=O)(=O)O)c5ccc(S(=O)(=O)O)cc5C4(C)C)cc3)C2=O)C(=O)O)c1)C(=O)N1CC(F)(F)C[C@H]1C#N (stereo partly drawn) [JFL-L1-S0456]	minimal or no uptake					
C[C@@H](NC(=O)c1ccnc(CNC(=O)CCC(=O)NC(CSC2CC(=O)N(c3ccc(-c4c5ccc(=O)cc-5oc5cc(O)ccc45)c(C(=O)O)c3)C2=O)C(=O)O)c1)C(=O)N1CC(F)(F)C[C@H]1C#N (stereo partly drawn) [JFL-L1-FM]		no uptake of dye conjugate was observed	slight separation in the tumor growth rate was observed	did not display any reduction in tumor volume	did not show any difference in the tumor growth rate	No weight loss was observed
